Key:
BV2 cells [1] = assay: NO and PGE2 production after LPS; assay type: cell-based; settings: 3 h pretreatment (Table 3 amounts), LPS 1 μg/ml 24 h
Protocol: (§1) RAW264.7 cells or BV2 cells (5×10^5 cells/well) were dispensed in DMEM containing 10% heat-inactivated FBS, 10 IU/mL penicillin G, 100 μg/mL streptomycin and 2 mM L-glutamine and cultured in a 5% CO2 incubator at a temperature of 37° C.
(§2) The compound of Formula III-3, III-4, V-3, III-1, IV-1, V-1, IV-2, V-2 or II-2 was added to the RAW264.7 cells or BV2 cells, and the toxicities of the compounds were determined by MTT assay.
(§3) The pretreated cells of Experimental Example 4-1 were treated with 1 μg/ml of LPS for 24 hours, and then the expression levels of iNOS and COX-2 were observed through Western blot, and the production of NO and PGE2 was measured.

RAW264.7 cells [2] = assay: NO and PGE2 production after LPS; assay type: cell-based; settings: 3 h pretreatment (Table 3 amounts), LPS 1 μg/ml 24 h
Protocol: as §1, §2, §3

[3] = target: T1, rePON1 (PON1, paraoxonase 1) (Homo sapiens, UniProt P27169); assay: Prevention of inhibition of PON1 activity by oxidized linolenic acid (TBBL substrate); assay type: biochemical; settings: for activity at 30 µM: 30 μM compound with rePON1 30 min, then oxidized linolenic acid 2 h, TBBL substrate, normal control 100, negative control 73.64; for extent to which inhibition of rePON1 activity was prevented, compared with glabridin: compound 30 μM vs glabridin 30 μM; for extent to which inhibition of rePON1 activity was prevented, compared with glabridin / inhibition of rePON1 activity by oxidized linolenic acid: result in words; for inhibition of rePON1 activity by oxidized linolenic acid: compound 30 μM
T1 construct: purchased Thermo Corp. RP-75678
Protocol: Based on the fact that the activity of PON1 is inhibited when PON1 is treated with oxidized linolenic acid, an experiment was conducted to confirm the prevention of inhibition of PON1 activity. The activity of PON1 was measured using TBBL (5-thiobutyl butyrolactones) as a substrate.
Specifically, after 9.6 μl of 50 mM Tris-HCl containing 1 mM CaCl2 was added to each of […] Eppendorf tubes, 0.2 μl of each of the compounds of Formulas III-1, IV-1, V-1, IV-2, V-2, II-1, IV-3, V-3, III-2, IV-4, V-4, II-2 and III-3 and glabridine was added to each tube so that the concentration thereof was 30 μM. 0.2 μl of rePON1 (RP-75678, Thermo Corp.) was added to each of the 12 tubes and mixed. Thereafter, each of the mixtures was allowed to react at room temperature for 30 minutes, and 0.5 μl of 1 mM oxidized linolenic acid (OX-LA) dissolved in DMSO was added thereto in order to inhibit rePON1 activity, followed by reaction at room temperature for 2 hours, thus preparing solutions (I).
25 μl of 0.5 mM DTNB dissolved in 50 mM Tris-HCl containing 1 mM CaCl2 was dispensed into each well of a 384-well plate, and then 10 μl of each of the solutions (I) was dispensed into each well, and 20 μl of 2 mM TBBL dissolved in 50 mM Tris-HCl containing 1 mM CaCl2 was added to each well, thus preparing samples. The absorbance of each of the samples at 420 nm was measured using a spectrometer (SpectraMax M2) at 37° C. every 2 minutes for 1 hour.
In addition, a negative control was prepared in the same manner as the above-described method, except that, for the preparation of a solution, 0.2 μl of DMSO was added instead of the compounds of Formulas III-1, IV-1, V-1, IV-2, V-2, II-1, IV-3, V-3, III-2, IV-4, V-4, II-2 and III-3 and glabridin. Furthermore, a normal control was prepared in the same manner as the above-described method, except that, for the preparation of a solution, 0.2 μl of DMSO was added instead of the above-described compounds and glabridin and that oxidized linolenic acid was not added. The absorbance of each of the negative control and the normal control was measured.
Using SoftMax Pro software, the activity of PON1 was calculated from the absorbance using the following Equation 1, and the results are shown in Table 1 below.
Activity=(absorbancesample−absorbanceblank)/(absorbancePON1−absorbanceblank)*100 [Equation 1]

RAW264.7 cells [4] = assay: Transcription of NF-κB protein (p65, p50) into nucleus after LPS (Western blot); assay type: cell-based; settings: 3 h pretreatment (Table 3 amounts), LPS 1 μg/ml 1 h
Protocol: RAW264.7 cells or BV2 cells (5×10^5 cells/well) were dispensed in DMEM containing 10% heat-inactivated FBS, 10 IU/mL penicillin G, 100 μg/mL streptomycin and 2 mM L-glutamine and cultured in a 5% CO2 incubator at a temperature of 37° C. […]
(§4) The pretreated cells of Experimental Example 4-1 were treated with 1 μg/ml of LPS for 1 hour, and then the level of transcription of NF-κB protein into the nucleus of each of p65 and p50 was analyzed through Western blot.

BV2 cells [5] = assay: iNOS and COX-2 expression after LPS (Western blot); assay type: cell-based; settings: 3 h pretreatment (Table 3 amounts), LPS 1 μg/ml 24 h
Protocol: as §1, §2, §3

RAW264.7 cells [6] = assay: iNOS and COX-2 expression after LPS (Western blot); assay type: cell-based; settings: 3 h pretreatment (Table 3 amounts), LPS 1 μg/ml 24 h
Protocol: as §1, §2, §3

BV2 cells [7] = assay: IL-1β, IL-6 and TNF-α mRNA expression after LPS (RT-PCR); assay type: cell-based; settings: 3 h pretreatment (Table 3 amounts), LPS 1 μg/ml 6 h
Protocol: as §1, §2
(§5) The pretreated cells of Experimental Example 4-1 were treated with 1 μg/ml of LPS for 6 hours, and then the mRNA expression level of the cytokine IL-1β, IL-6 or TNF-α produced in the inflammatory response was analyzed using RT-PCR.

RAW264.7 cells [8] = assay: as above; assay type: cell-based; settings: 3 h pretreatment (Table 3 amounts), LPS 1 μg/ml 6 h
Protocol: as §1, §2, §5

BV2 cells [9] = assay: Transcription of NF-κB protein (p65, p50) into nucleus after LPS (Western blot); assay type: cell-based; settings: 3 h pretreatment (Table 3 amounts), LPS 1 μg/ml 1 h
Protocol: as §1, §2, §4

T1 sequence (P27169 whole entry): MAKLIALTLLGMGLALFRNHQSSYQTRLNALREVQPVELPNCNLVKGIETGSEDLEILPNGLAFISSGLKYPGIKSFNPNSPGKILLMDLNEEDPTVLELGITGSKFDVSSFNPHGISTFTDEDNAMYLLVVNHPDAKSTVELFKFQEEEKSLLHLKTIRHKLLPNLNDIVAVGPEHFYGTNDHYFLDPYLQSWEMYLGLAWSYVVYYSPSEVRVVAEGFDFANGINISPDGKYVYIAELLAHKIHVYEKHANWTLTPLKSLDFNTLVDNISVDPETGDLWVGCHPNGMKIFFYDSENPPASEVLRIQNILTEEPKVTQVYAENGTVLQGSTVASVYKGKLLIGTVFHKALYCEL

**Q.** CCCOc1ccc([C@@H]2COc3c(ccc4c3CCC(C)(C)O4)C2)c(O)c1 [Formula IV-2, (R)-2-(8,8-dimethyl-2,3,4,8,9,10-hexahydropyrano[2,3-f]chromen-3-yl)-5-propoxyphenol] was tested. Which “production of NO” value (BV2 cells [1]) did it give?
**A.** concentration-dependently decreased

**Q.** And the “production of PGE2” value (BV2 cells [1])?
**A.** concentration-dependently decreased

**Q.** And the “production of NO” value (RAW264.7 cells [2])?
**A.** concentration-dependently decreased

**Q.** What about the “production of PGE2” value (RAW264.7 cells [2]) of the same compound?
**A.** concentration-dependently decreased

**Q.** What about the activity at 30 µM [3] of the same compound?
**A.** 93.5%

**Q.** And the “extent to which inhibition of rePON1 activity was prevented, compared with glabridin” value [3]?
**A.** greater

**Q.** What about the “inhibition of rePON1 activity by oxidized linolenic acid” value [3] of the same compound?
**A.** prevented

**Q.** And the “level of transcription of NF-κB protein into the nucleus, p50” value (“level of transcription … p50” for short) (RAW264.7 cells [4])?
**A.** concentration-dependently decreased

**Q.** And the “level of transcription of NF-κB protein into the nucleus, p65” value (“level of transcription … p65” for short) (RAW264.7 cells [4])?
**A.** concentration-dependently decreased

**Q.** And the “expression level of COX-2” value (BV2 cells [5])?
**A.** concentration-dependently decreased

**Q.** What about the “expression level of iNOS” value (BV2 cells [5]) of the same compound?
**A.** concentration-dependently decreased

**Q.** What about the “expression level of COX-2” value (RAW264.7 cells [6]) of the same compound?
**A.** concentration-dependently decreased

**Q.** And the “expression level of iNOS” value (RAW264.7 cells [6])?
**A.** concentration-dependently decreased

**Q.** And the “mRNA expression level of IL-1β” value (BV2 cells [7])?
**A.** concentration-dependently decreased

**Q.** And the “mRNA expression level of IL-6” value (BV2 cells [7])?
**A.** concentration-dependently decreased

**Q.** And the “mRNA expression level of TNF-α” value (BV2 cells [7])?
**A.** concentration-dependently decreased

**Q.** And the “mRNA expression level of IL-1β” value (RAW264.7 cells [8])?
**A.** concentration-dependently decreased

**Q.** And the “mRNA expression level of IL-6” value (RAW264.7 cells [8])?
**A.** concentration-dependently decreased

**Q.** And the “mRNA expression level of TNF-α” value (RAW264.7 cells [8])?
**A.** concentration-dependently decreased

**Q.** What about the “level of transcription … p50” value (BV2 cells [9]) of the same compound?
**A.** concentration-dependently decreased

**Q.** What about the “level of transcription … p65” value (BV2 cells [9]) of the same compound?
**A.** concentration-dependently decreased

**Q.** With CCOc1ccc([C@H]2COc3c(ccc4c3CCC(C)(C)O4)C2)c(O)c1 [Formula V-1, (S)-2-(8,8-dimethyl-2,3,4,8,9,10-hexahydropyrano[2,3-f]chromen-3-yl)-5-ethoxyphenol] as the compound, how does the “production of NO” value (BV2 cells [1]) read?
**A.** concentration-dependently decreased

**Q.** What about the “production of PGE2” value (BV2 cells [1]) of the same compound?
**A.** concentration-dependently decreased

**Q.** And the “production of NO” value (RAW264.7 cells [2])?
**A.** concentration-dependently decreased

**Q.** What about the “production of PGE2” value (RAW264.7 cells [2]) of the same compound?
**A.** concentration-dependently decreased

**Q.** What about the activity at 30 µM [3] of the same compound?
**A.** 80.7%

**Q.** And the “extent to which inhibition of rePON1 activity was prevented, compared with glabridin” value [3]?
**A.** greater

**Q.** What about the “inhibition of rePON1 activity by oxidized linolenic acid” value [3] of the same compound?
**A.** prevented

**Q.** What about the “level of transcription … p50” value (RAW264.7 cells [4]) of the same compound?
**A.** concentration-dependently decreased

**Q.** And the “level of transcription … p65” value (RAW264.7 cells [4])?
**A.** concentration-dependently decreased

**Q.** What about the “expression level of COX-2” value (BV2 cells [5]) of the same compound?
**A.** concentration-dependently decreased

**Q.** And the “expression level of iNOS” value (BV2 cells [5])?
**A.** concentration-dependently decreased

**Q.** What about the “expression level of COX-2” value (RAW264.7 cells [6]) of the same compound?
**A.** concentration-dependently decreased

**Q.** What about the “expression level of iNOS” value (RAW264.7 cells [6]) of the same compound?
**A.** concentration-dependently decreased

**Q.** And the “mRNA expression level of IL-1β” value (BV2 cells [7])?
**A.** concentration-dependently decreased

**Q.** What about the “mRNA expression level of IL-6” value (BV2 cells [7]) of the same compound?
**A.** concentration-dependently decreased

**Q.** And the “mRNA expression level of TNF-α” value (BV2 cells [7])?
**A.** concentration-dependently decreased

**Q.** What about the “mRNA expression level of IL-1β” value (RAW264.7 cells [8]) of the same compound?
**A.** concentration-dependently decreased

**Q.** And the “mRNA expression level of IL-6” value (RAW264.7 cells [8])?
**A.** concentration-dependently decreased

**Q.** What about the “mRNA expression level of TNF-α” value (RAW264.7 cells [8]) of the same compound?
**A.** concentration-dependently decreased

**Q.** And the “level of transcription … p50” value (BV2 cells [9])?
**A.** concentration-dependently decreased

**Q.** What about the “level of transcription … p65” value (BV2 cells [9]) of the same compound?
**A.** concentration-dependently decreased
